Experimental data: patent US11771711B2, “Substituted pyridines as DNMT1 inhibitors” (GlaxoSmithKline Intellectual Property Development Limited, priority 2021, dated 2023)
Converted amounts (≈) assume the structure as drawn.

What was measured:
Full-length human DNMT1 = Full-length human DNMT1 (Homo sapiens (Human), UniProt P26358); assay: DNMT1 Scintillation Proximity Assay (SPA) - Assay A; format: biochemical; details: footnote a: DNMT1 full length
Protocol: DNMT1 Scintillation Proximity Assay (SPA)—Assay A (Full-Length Human DNMT1)
This assay used Scintillation Proximity technology in a signal increase format to evaluate the potency of compounds. Full-length human DNMT1, hemi-methylated DNA duplex*, and tritiated SAM were utilized to monitor activity. Assay plate creation consisted of the following parameters: 500 nL of an 11 pt, 3-fold serial dilution of compound was stamped into a 96 well Costar plate (#3884). Assay buffer mix was made on the day of assay consisting of: 20 mM Tris pH 7.5, 1 mM DTT, 1 mM EDTA, and 5% glycerol. A 2× enzyme mix was then prepared consisting of 30 nM DNMT1 protein (full length human DNMT, made in house) in assay buffer. The 2× substrate mix was made last, and consisted of 160 nM 40mer hemi-methylated DNA*, 0.48 μM ^3H-SAM, and 2.92 μM cold SAM in assay buffer (^3H-SAM is added last). The quench (1 mM SAH) was made in bulk and frozen at −20 until the time of use. Ten uL of the 2× substrate mix was added to the entire plate using a multichannel electronic pipette. Plate was shaken for at least 10s between additions to ensure mixing. Next, 20 uL of 2× quench mix was added to column 12 using a multichannel pipette (shake plate). Using a multichannel electronic pipette, 10 uL of 2× enzyme mix was added to the full plate starting with column […] (column 12 last to avoid pre-quench carryover). Plates were incubated on the shaker for 30 minutes with the plate covered. At the end of the incubation period, 20 uL of quench mix were added to all wells except column 12 (shake plate) followed by the addition of 20 uL of 3 mg/mL PerkinElmer PEI PVT SPA Beads (Cat. #RPNQ0097) diluted in DNAse free water and allowed to shake for at least 30 minutes. Plates were sealed with a clear seal and centrifuged at 500 rpm for 1 min. Plates were read on a MicroBeta (Perkin Elmer, read for ^3H (1 min/well).
Microsoft Excel was used to analyze the data up to Vi/Vo and GraFit was used to fit the data. Responses were normalized to the uninhibited (DMSO) and pre-quenched controls within each plate. Dose-response curves were analyzed using a three-parameter logistic fit with Ymin constrained to 0 and results were expressed as IC50 values.
Final assay conditions: 20 mM Tris (Hampton Research—HR-937-06), pH 7.5, 1 mM DTT (Invitrogen—P2325), 1 mM EDTA (Invitrogen—AM9260G), 5% Glycerol (Teknova—G1796), 0.02% Pluronic F127 (Life Technologies—P6866), 15 nM DNMT1 (full length human DNMT1—GSK made in-house), 240 nM ^3H-SAM (PerkinElmer—NET155H001MC), 1460 nM cold SAM (New England Biolabs—B9003S) and 80 nM 40-mer hemi-methylated DNA Oligonucleotide (Integrated DNA Technologies—custom), 1 mM SAH (Sigma A9384), and 1 mg/mL PEI PVT SPA Beads (Perkin Elmer RPNQ0097) resuspended in water.

physchem = details: FaSSIF buffer, pH 6.5, fassif, thermodynamic from solid
Protocol: Solubility of Solid Compounds in Fasted Simulated Intestinal Fluid
The solubility of solid compounds in Fasted Simulated Intestinal Fluid (FaSSIF) was determined at pH 6.5 after 4 hour equilibration at room temperature (using procedures described in Sou, T.; Bergström, C. A. S. Automated assays for thermodynamic (equilibrium) solubility determination. Drug Discovery Today: Technologies 2018, 27, 11-19). 1 ml of FaSSIF buffer (3 mM Sodium taurocholate, 0.75 mM lecithin in sodium phosphate buffer at pH6.5) was added to manually weighed 1 mg of solid compound in a 4 ml vial. The resulting suspension was shaken at 900 rpm for 4 hours at room temperature and then transferred to a Multiscreen HTS, 96-well solubility filter plate to separate the residual solid and the filtrate. Quantification of the compound concentration in the filtrate was performed by HPLC-UV using single point calibration of a known concentration of the compound in DMSO. […] The dynamic range of the assay was 1-1000 μg/ml.

[1] = Rat pharmacokinetic study (oral bioavailability); format: in vivo; details: blood, PO gavage vs 60 minute IV infusion, 5% DMA/15% Solutol
Protocol: Pharmacokinetic Studies: All studies were conducted in accordance with the GSK Policy on the Care, Welfare and Treatment of Laboratory Animals and were reviewed either by the Institutional Animal Care and Use Committee at GSK or by the ethical review process at the institution where the studies were performed. Pharmacokinetic studies for example 2 were conducted using non-fasted, Male Wistar Han rats, n=3/dose route and for reference compound 4, non-fasted male Sprague-Dawley rats, n=2/dose route in a non-crossover design. Compounds were prepared as solutions in 5% DMA/15% Solutol and administered as a 60 minute IV infusion and PO gavage. Blood samples were collected serially at multiple time points from pre-dose through 24 hours post dose and the analytes were quantified by LC/MS/MS. The percent bioavailability was calculated by comparison of the dose normalized Area Under the Curve (DNAUC) obtained from PO dosing with the DNAUC from the IV route [(PO DNAUC/IV DNAUC)*100].

[2] = target: Human truncated DNMT1(601-1600) (Homo sapiens (Human), UniProt P26358); assay: DNMT1 Scintillation Proximity Assay (SPA) - Assay B; format: biochemical; details: footnote b: DNMT1 truncate
Sequence of Human truncated DNMT1(601-1600) (P26358 601-1600): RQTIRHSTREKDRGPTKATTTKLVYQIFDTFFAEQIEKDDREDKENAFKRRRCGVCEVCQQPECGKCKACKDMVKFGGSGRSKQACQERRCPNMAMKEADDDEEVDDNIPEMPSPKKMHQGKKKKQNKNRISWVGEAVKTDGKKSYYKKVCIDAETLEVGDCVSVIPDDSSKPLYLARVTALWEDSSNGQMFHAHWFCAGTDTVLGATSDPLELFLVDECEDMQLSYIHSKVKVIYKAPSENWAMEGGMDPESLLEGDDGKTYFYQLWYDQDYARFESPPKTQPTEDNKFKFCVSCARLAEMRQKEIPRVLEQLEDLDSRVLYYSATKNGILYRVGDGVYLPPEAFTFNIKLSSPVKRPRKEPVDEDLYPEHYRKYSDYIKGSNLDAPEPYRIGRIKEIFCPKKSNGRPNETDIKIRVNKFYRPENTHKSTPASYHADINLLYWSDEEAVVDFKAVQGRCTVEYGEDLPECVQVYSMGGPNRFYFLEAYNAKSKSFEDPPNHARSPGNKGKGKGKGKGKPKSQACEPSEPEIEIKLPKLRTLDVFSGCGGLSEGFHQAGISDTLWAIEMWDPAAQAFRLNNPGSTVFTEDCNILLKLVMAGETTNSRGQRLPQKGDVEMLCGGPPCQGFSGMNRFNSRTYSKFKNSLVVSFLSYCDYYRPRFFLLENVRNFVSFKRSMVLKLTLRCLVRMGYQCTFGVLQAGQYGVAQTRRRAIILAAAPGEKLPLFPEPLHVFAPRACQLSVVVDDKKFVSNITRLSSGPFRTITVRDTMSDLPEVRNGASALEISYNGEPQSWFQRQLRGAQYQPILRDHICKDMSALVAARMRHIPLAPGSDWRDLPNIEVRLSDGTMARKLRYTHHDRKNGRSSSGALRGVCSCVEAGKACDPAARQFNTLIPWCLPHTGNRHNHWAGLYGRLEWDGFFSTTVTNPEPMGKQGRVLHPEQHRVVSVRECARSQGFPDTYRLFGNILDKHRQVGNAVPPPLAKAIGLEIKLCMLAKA
Protocol: DNMT1 Scintillation Proximity Assay (SPA)—Assay B (Human Truncated DNMT1(601-1600))
This assay used Scintillation Proximity technology in a signal increase format to evaluate the potency of compounds. Human truncated DNMT1(601-1600), single hemi-methylated CpG site oligonucleotide, and Tritiated SAM were utilized to monitor activity. Assay plate creation consisted of the following parameters: 10 mM Compounds (11-point, 3-fold serial dilution) were stamped at 100 nL per well (100× in 100% DMSO) into a Griener white LV 384 well plate (#784075). Assay buffer mix was made on the day of assay consisting of: base buffer: (500 mM Hepes, ph 8, 1M MgCl2 made in advance, stored at room temp as a stock), 10% NP40-Surfact AMPS, 10% Ultrapure BSA 50 mg/ml, and 2M DTT (DL-Dithiolthreitol). The 2× enzyme mix was then prepared consisting of: DNMT1 protein (truncate human DNMT1—601-1600, made in house at 16.876 uM stock concentration) added to the assay buffer mix. […] Plates were read on a Viewlux (PerkinElmer, 613 nm emission filter, 300 sec dual-exposure, (10 min. total read time)).
The Abase database was used to analyze the data. […] Dose-response curves were analyzed using a four-parameter logistic fit and results were expressed as pIC50 values. […]

[3] = internal standards tested alongside in FaSSIF assay; cited from earlier work

Sequence of Full-length human DNMT1 (P26358 whole entry): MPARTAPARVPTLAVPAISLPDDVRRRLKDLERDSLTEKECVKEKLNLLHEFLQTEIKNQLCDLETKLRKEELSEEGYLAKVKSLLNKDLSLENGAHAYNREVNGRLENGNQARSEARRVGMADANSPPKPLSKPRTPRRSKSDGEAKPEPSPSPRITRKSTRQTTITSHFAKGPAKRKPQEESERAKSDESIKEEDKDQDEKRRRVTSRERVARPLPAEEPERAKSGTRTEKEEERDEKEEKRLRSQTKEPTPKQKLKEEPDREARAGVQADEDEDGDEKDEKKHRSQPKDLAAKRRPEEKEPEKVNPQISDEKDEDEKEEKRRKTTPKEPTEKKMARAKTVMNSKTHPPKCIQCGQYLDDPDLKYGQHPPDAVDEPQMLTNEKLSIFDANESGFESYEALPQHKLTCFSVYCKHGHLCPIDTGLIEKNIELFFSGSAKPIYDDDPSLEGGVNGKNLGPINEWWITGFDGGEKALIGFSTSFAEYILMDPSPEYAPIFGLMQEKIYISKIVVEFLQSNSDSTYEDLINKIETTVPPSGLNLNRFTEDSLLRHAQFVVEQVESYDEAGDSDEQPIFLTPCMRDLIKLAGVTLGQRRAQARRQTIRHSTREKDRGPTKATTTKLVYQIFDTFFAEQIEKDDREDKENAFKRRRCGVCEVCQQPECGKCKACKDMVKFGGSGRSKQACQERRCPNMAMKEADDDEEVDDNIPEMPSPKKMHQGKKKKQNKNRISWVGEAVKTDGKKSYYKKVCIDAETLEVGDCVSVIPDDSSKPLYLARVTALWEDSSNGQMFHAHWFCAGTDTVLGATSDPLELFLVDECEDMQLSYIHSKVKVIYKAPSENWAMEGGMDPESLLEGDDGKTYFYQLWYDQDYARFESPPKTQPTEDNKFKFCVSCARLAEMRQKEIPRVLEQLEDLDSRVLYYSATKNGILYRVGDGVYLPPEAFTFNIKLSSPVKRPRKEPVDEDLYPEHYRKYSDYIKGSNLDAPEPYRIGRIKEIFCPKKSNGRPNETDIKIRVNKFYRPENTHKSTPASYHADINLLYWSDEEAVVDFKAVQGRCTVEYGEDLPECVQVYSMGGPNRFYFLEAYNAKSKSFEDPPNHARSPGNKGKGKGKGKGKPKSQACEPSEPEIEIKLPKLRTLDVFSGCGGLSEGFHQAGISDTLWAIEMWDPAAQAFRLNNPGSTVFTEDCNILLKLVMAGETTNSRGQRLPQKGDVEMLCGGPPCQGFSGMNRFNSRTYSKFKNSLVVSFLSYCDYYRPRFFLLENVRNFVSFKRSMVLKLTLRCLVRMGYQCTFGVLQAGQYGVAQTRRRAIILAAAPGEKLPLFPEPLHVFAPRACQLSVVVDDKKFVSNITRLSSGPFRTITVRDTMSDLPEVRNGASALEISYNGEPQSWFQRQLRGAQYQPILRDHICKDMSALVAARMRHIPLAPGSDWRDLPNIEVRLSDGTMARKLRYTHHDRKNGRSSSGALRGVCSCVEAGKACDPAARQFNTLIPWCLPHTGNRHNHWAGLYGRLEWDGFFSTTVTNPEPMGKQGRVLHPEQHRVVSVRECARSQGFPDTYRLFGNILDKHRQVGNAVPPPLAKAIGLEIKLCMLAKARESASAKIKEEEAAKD

Compound	IC50 (Full-length human DNMT1)	solubility at 4 h (physchem)	also measured
CCc1c(C#N)c(SC(C(N)=O)c2ccc(OS(C)(=O)=O)cc2)nc(N(C)C)c1C#N (racemic) [Example 4, 4-(2-amino-1-((3,5-dicyano-6-(dimethylamino)-4-ethylpyridin-2-yl)thio)-2-oxoethyl)phenyl methanesulfonate]	107 nM	< 1 µg/mL	–
CCc1c(C#N)c(S[C@@H](C(N)=O)c2ccc(OS(C)(=O)=O)cc2)nc(N(C)C)c1C#N [Example 2, (R)-4-(2-amino-1-((3,5-dicyano-6-(dimethylamino)-4-ethylpyridin-2-yl)thio)-2-oxoethyl)phenyl methanesulfonate]	54 nM	1 µg/mL	bioavailability ([1]; non-fasted male Wistar Han rats, n=3/dose route): 40%
CCc1c(C#N)c(SC(C(=O)NP(=O)(O)O)c2ccc(OS(C)(=O)=O)cc2)nc(N(C)C)c1C#N (stereo not drawn) [Example 3, (2-((3,5-dicyano-6-(dimethylamino)-4-ethylpyridin-2-yl)thio)-2-(4-((methylsulfonyl)oxy)phenyl)acetyl)phosphoramidic acid]	5210 nM	> 1000 µg/mL	–
CCc1c(C#N)c(S[C@@H](C(N)=O)c2ccccc2)nc(N(C)C)c1C#N [Reference compound 1, reference compound]	–	< 1 µg/mL	–
CCc1c(C#N)c(S[C@@H](C(N)=O)c2ccccc2)nc(N2CC[C@H](O)C2)c1C#N [Reference compound 2, reference compound]	156 nM	2.7 µg/mL (≈ 6.63 µM)	–
CCc1c(C#N)c(SC(C(N)=O)c2ccc(Cl)cc2)nc(N(C)C)c1C#N (stereo not drawn) [Reference compound 3]	–	–	IC50 [2]: 631 nM
CCc1c(C#N)c(S[C@@H](C(N)=O)c2ccc(OC)cc2)nc(N2CC[C@H](O)C2)c1C#N [Reference compound 4, reference compound]	–	4 µg/mL (≈ 9.14 µM)	IC50 [2]: 79 nM; bioavailability ([1]; non-fasted male Sprague-Dawley rats, n=2/dose route): 6.1%
CC(=O)CC(c1ccccc1)c1c(O)c2ccccc2oc1=O (stereo not drawn) [Warfarin]	–	–	known solubility of internal standards [3]: 140 µg/mL
